Point of comparison: `CCCO[C@@H](C)C(=O)Oc1ccc(C(=O)O)cc1`, melting point 84 °C. Against it:
- COc1cc(OC)c2c(=O)[nH]c(-c3ccc(Cc4nnn[nH]4)cc3)nc2c1 — higher, 295 to 296 °C
- Nc1nc2c(ncn2C2CC(O)C(CO)O2)c(=O)[nH]1 (centres undefined) — higher, > 300 °C
- CC(C)(C)OC(=O)N1CCn2c(C#N)c(-c3cccc(F)c3)c(C(N)=O)c2C1 — higher, 208 to 210 °C
- CC(C)(C)CCOc1c(-c2ccc(S(C)(=O)=O)cc2)cnn(CC(F)(F)F)c1=O — not separable, 83 to 85 °C
- CCC(=O)CCC1(C(N)=O)c2ccccc2-c2ccccc21 — higher, 133 to 135 °C
- CON=C1CN(c2cc3c(cc2F)c(=O)c(C(=O)O)cn3C2CC2)CC12CN(C(=O)OC(C)(C)C)C2 — higher, 255 to 256 °C
- CCCc1cc(CCCOc2c(C)cc(-c3noc(C)n3)cc2C)on1 — lower, 69 to 70 °C
- C=C(C)CN1CCN(CCC(=O)N2c3ccccc3C(=O)Nc3cccnc32)CC1 — higher, 210 to 211 °C
- COc1cc(C)cc(OC)c1C1=NC(NC(=O)Nc2ccccc2Cl)C(=O)N(C)c2ccccc21 (centres undefined) — higher, 260 °C
- CCOC(=O)C(C)(C)Oc1ccc(-c2ccc(CCNC(=O)c3ccc(C)cc3)cc2)cc1 — higher, 214 °C
- CCOC(=O)c1ccc(OCCCC2CCN(c3ccc(-c4ccc(F)cc4)nn3)CC2)cc1 — higher, 160 °C
- CCCOc1ccc(S)cc1C(N)=O — higher, 108 to 111 °C
- CNc1ccc(C2=NCCO2)cc1 — higher, 102 to 105 °C
- COc1cc(CCCC2OC(=O)NC2=O)cc(OC)c1OCc1coc(/C=C/c2ccccc2)n1 (centres undefined) — higher, 94 to 95 °C
- O=C(Nc1ccc(F)c(C(F)(F)F)c1)c1csc2cc(Oc3cc(CO)ncn3)ccc12 — higher, 138 to 140 °C
- CCC(C)(C)NC(=O)C(=O)c1ccccc1 — lower, 29 to 30 °C
- Oc1cccc2c1cc(C1=NCCN1)n2-c1ccccc1 — higher, > 270 °C
- CC(O)(c1nc2ccccc2[nH]1)C(F)(F)F (centres undefined) — higher, 184 to 187 °C
- CCCCCCc1ccc(-c2ccc(-c3ncc(C(=O)OCC)c(O)n3)cc2)cc1 — higher, 91.6 to 91.9 °C
- CCOC(=O)N(Cn1cc(Cl)cnc1=O)c1ccccc1 — higher, 174 °C
- O=C(O)C(=O)c1ccc(O)c([N+](=O)[O-])c1 — higher, 139 to 140 °C
- CCOC(=O)C1=C(C)C2=C(CC1)SCCC2=O — higher, 99 to 100 °C
- COc1nc2cc(Cl)c(Cl)cc2nc1N1CCN(C)CC1 — higher, 92.6 to 99 °C
- Cc1nc(N(C)Cc2ccco2)c2nc(-c3ccccc3)cc-2[nH]1 — higher, 168 to 169 °C
- Cc1cc(OS(=O)(=O)C(F)(F)F)ccc1S(C)(=O)=O — lower, 51 °C
- Cc1nc(-c2cc(C(=O)O)c(=O)[nH]c2C)cs1 — higher, 297 to 299 °C
- CC(C)(CNc1ccnc2cc(Cl)ccc12)NCc1c(Cl)cccc1Cl — higher, 154 to 155 °C
- CSC(=C(C#N)C#N)N1CCc2ccccc2CC1 — higher, 129 to 132 °C
- COc1ccc(C(=O)Nc2c(Cl)cncc2Cl)c2c1oc1ccncc12 — higher, > 260 °C
- COC(=O)C1(C)CCCC2(C)c3c(OC)cc(C(C)C)c(OC)c3CCC12 (centres undefined) — higher, 133 to 135 °C
- Cc1nc(N2CCNCC2)nc(N2CCS(=O)(=O)CC2)c1[N+](=O)[O-] — higher, 208 to 211 °C
- CCCC[C@H](NC(=O)[C@H](CCC)NC(=O)OCc1ccccc1)C(=O)CSCc1ccco1 — higher, 95 to 96 °C
- COc1cc(OC)c(-c2nc(NC(=O)c3cc4ccccc4[nH]3)sc2C)cc1Cl — higher, 249 °C
- CC(C)Oc1ccc(C(=O)c2[nH]c3cc(Cl)ccc3c2CC(=O)O)cc1 — higher, 216 to 218 °C
- c1ccc(-c2nn[nH]c2-c2ccccc2)cc1 — higher, 131 °C
- CC1(C)Cc2sccc2C(NC(N)=O)C1 (centres undefined) — higher, 174 to 178 °C
- Cc1ccc(C)c(NC(=O)CCc2ccc(O)c(N)c2)c1 — higher, 162 to 163 °C
- CCOC(=O)n1nc(-c2cc(C(C)(C)C)c(O)c(C(C)(C)C)c2)c2ccc(C)nc21 — higher, 208 to 209 °C
- O=C1C(=NO)SCCN1Cc1ccccc1 — higher, 225 to 227 °C
- CCC(O)(c1ccc(F)cc1)c1ccc(OCCN2CCCCC2)cc1 (centres undefined) — lower, 72 to 73 °C
- CCOC(=O)[C@@H](O)[C@@H]1OC(=O)c2cc(OC)c(OCc3ccccc3)cc21 — higher, 138 to 140 °C
- CCOC(=O)N1CCN(c2ccc(O)cc2)CC1 — higher, 169 °C
- N#Cc1ccc2cc(CCCCCc3cc4ccc(C#N)cc4o3)oc2c1 — higher, 106 to 107 °C
- Cc1ncnc(-c2ccc(Oc3ccc([N+](=O)[O-])cc3)cc2)n1 — higher, 148 to 149 °C
- COCOc1ccc(C=O)c2cccc(C)c12 — lower, 42 to 43 °C
- O=Cc1cn(Cc2cc(OCc3ccccc3)cc(OCc3ccccc3)c2)cc1-c1ccccc1 — higher, 117 to 118 °C
- Cn1c(=O)c(-c2ccc(Cl)cc2Cl)cc2c3cc(-c4cocn4)ccc3n(C)c21 — higher, 221 to 222 °C
- CCC(c1ccc(Br)cc1)N(O)C(N)=O (centres undefined) — higher, 139 to 141 °C
- O=C(Nc1cccnc1)N1CCN(c2cc(-c3ccc(F)cc3)ncn2)CC1 — higher, 180 to 182 °C
- Cc1cnc(C(=O)O)cc1C(c1cc(F)ccc1F)S(=O)(=O)c1ccc(Cl)cc1 (centres undefined) — higher, 105 to 107 °C
- CONCc1nc2c(N)nc3ccccc3c2n1CC1(O)CCC1 — higher, 178 to 181 °C
- CN(C)CCNC(=O)c1ccc(-c2nnc(CSCCOc3ccccc3)o2)cc1 — higher, 94 to 100 °C
- CCCCC(=O)c1ccc(C(=O)Nc2ccc3cc(CN4CCCC4)cnc3c2C)cc1 — higher, 180 °C
- CC(=O)NCCc1nc(-c2csc(N=C(N)N)n2)cs1 — higher, 226 to 227 °C
- CCn1ccc(OC2c3cc(C#N)ccc3OC(C)(C)C2(C)O)cc1=O (centres undefined) — higher, 166 to 168 °C
- CNC(=O)C(=NOC)c1ccccn1 — higher, 132 to 133 °C
- CNc1nc(N2CCN(C)CC2)nc2ccc(Cl)cc12 — higher, 173 to 176 °C
- CCCCCCCCCCCCCCOc1ccc(CC(=O)NCCc2ccccn2)cc1 — higher, 90 to 91 °C
- O=C1CN(C(=O)CN2CC(c3ccc(Cl)cc3)CC2=O)CCN1 (centres undefined) — higher, 205 to 207 °C
- CCOC(=O)c1cnc2c(O)nccn2c1=O — higher, > 300 °C
- COc1cc2c(cc1OC)CCN(C(=O)N(C)O)CC2 — higher, 95 to 96 °C
- CCOC(=O)CCCNc1ccc2oc(-c3ccc4ccc(Cl)cc4n3)cc2c1 — higher, 154 to 155 °C
- CCNC(=O)ON=C1CCOc2ccc(OC)cc21 — higher, 97 to 98 °C
- N#Cc1cnc(NS(=O)(=O)c2cccc(Cl)c2Cl)c(OCc2cccnc2)n1 — higher, 222 to 224 °C
- CCN(C(=O)C1CC1)c1cccc(-c2ccnc3c(C#N)cnn23)c1 — higher, 166 to 168 °C
- Cc1cc(S(=O)(=O)NC(C)C)c2c(C)ccc(C(C)C)cc1-2 — higher, 128 to 130 °C
- COc1ccc(C=O)nc1I — higher, 118 to 121 °C
- COc1ccc2c(c1)c1c(n2Cc2ccc(Cl)cc2)CCCC1C(=O)O (centres undefined) — higher, 218 to 220 °C
- CCCc1c(OCCCOc2ccc(CC(=O)O)cc2F)ccc(C(C)=O)c1O — higher, 121 to 123 °C
- CCOC(=O)C(=CNn1cnnc1)C(=O)c1cc(F)c(Cl)nc1Cl — higher, 89 to 95 °C
- c1ccc(SCCn2c(-c3ccccc3)nc3cc(CN4CCN(C(c5ccccc5)c5ccccc5)CC4)ccc32)cc1 — higher, 118 to 125 °C
- ClCCN1c2ccc(Cl)cc2C(c2ccsc2)=NCC1CCl (centres undefined) — higher, 115 to 116 °C
- NNC(=O)c1ccc(OCc2ccccc2)cn1 — higher, 140 to 142 °C
- COC(=O)C1=C(C#N)NC(C)=C(C(=O)OCC(C)(C)C)C1c1ccccc1C#N (centres undefined) — higher, 173 to 174 °C
- CC(C)n1nc(-c2nc(Oc3ccc(F)cc3)c(N)nc2-c2ccccc2)ccc1=O — higher, 173 to 175 °C
- COc1cnc(CSc2nc3cc(OC(F)(F)F)ccc3[nH]2)c(C)c1OC — higher, 94 to 97 °C
- CN1C(=O)C2C3CCC(CC3)C2(c2ccc(F)c(F)c2)C1=O (centres undefined) — higher, 133 to 136 °C
- O=C(Nc1cc(-c2ccc(-c3ccccc3)cc2)on1)c1c(Cl)cccc1Cl — higher, 256 to 259 °C
- CCc1noc(-c2ncn(-c3cccnc3)c2C)n1 — higher, 127 to 128 °C
- O=[N+]([O-])c1c(CO)cccc1CO — higher, 100 to 101 °C
- CC(C)(CO)c1ccc(Cl)cc1 — lower, 46 to 48 °C
- C[C@H](NC(=O)c1ccccc1)C(=O)N[C@@H](C)C(=O)Nc1ccccc1 — higher, 245 to 248 °C
- O=S(=O)(c1ccc(O)cc1)c1ccc(F)cc1 — higher, 150 to 154 °C
- O=S(=O)(CCCCl)Nc1cccc(OCc2ccc3ccccc3n2)c1 — higher, 116 to 117 °C
- CCNC(=O)CC(c1ccc(OC)c(OC)c1)N1C(=O)c2ccccc2C1=O (centres undefined) — higher, 131 to 132 °C
- CCCC(=O)NCCC1CCc2ccc3c(c21)OCO3 (centres undefined) — lower, 71 to 73 °C
- CC(C)(C)OC(=O)n1cc(C=C(Br)Br)c2ccccc21 — higher, 101 to 104 °C
- c1ccc2c(c1)SCCc1c-2n(Cc2ccc(OCCCN3CCCCC3)cc2)c2ccccc12 — lower, 70 to 71 °C
- O=C1COc2ccc(C3=Cc4ccccc4OC3c3ccccc3)cc2N1 (centres undefined) — higher, 246 to 249 °C
- O=C1c2ccc(Cl)c3c(N4CCCC4)cc(Cl)c(c23)C(=O)N1O — higher, 243 to 245 °C
- Cn1c(C(=O)O)cc(=O)c2cc(O)c(=O)c(Br)cc21 — higher, > 250 °C
- CCOC(=O)c1cnn(-c2cccc(S(=O)(=O)N(C)C)n2)c1S(N)(=O)=O — higher, 102 to 104 °C
- N#CC1(Cc2nnn[nH]2)C2CCCC1CCC2 (centres undefined) — higher, 189 to 191 °C
- FC(F)(F)c1ccccc1NCC1=NNCCN1 — higher, 97 to 98 °C
- Fc1ccc(-c2ccc(-c3cc(N4CCNCC4)nnc3C(F)(F)F)cc2)cc1 — higher, 162 °C
- CCCCN1C(=O)NC(=Cc2ccc(C(=O)OC)cc2)C1=O — higher, 212 °C
- CSc1cncnc1-c1ssc(=S)c1C — higher, 89 to 90 °C
- CC1Nc2ccc(-c3cccc(F)c3)cc2C(C)(C)O1 (centres undefined) — higher, 139 to 140 °C
- CCOC(=O)C(OCOc1ccc(-c2ccc(Cl)cc2)cc1)(C(F)(F)F)C(F)(F)F — lower, 42 to 43 °C
- CN(C)Cc1nnc2n1-c1ccc(Cl)cc1C(c1ccccc1Cl)=NC2 — higher, 199 to 201 °C
- Clc1cc2c(cc1Cl)OCCO2 — higher, 147 to 148 °C
- COC(=O)CCCC(=O)c1cc2c(c(S(N)(=O)=O)c1)OCC2 — higher, 135 to 136 °C
- C=CCn1cc(C2CCN(CCOc3ccccc3C(=O)O)CC2)c2ccccc21 — higher, 123 to 125 °C

From a melting point compilation (Tetko et al.; mined from patent text by program, amines drawn as free bases though some values may be those of a salt)
